These are literature values, as cited in US10226421B2, “Pharmaceutical composition containing budesonide and formoterol” (Zambon S.P.A., priority 2013, dated 2019).

The conditions of the data set: phospholipids in the presence of a humidity.
With `CCCCCCCCCCCCCCCC(=O)OC[C@H](COP(=O)([O-])OCC[N+](C)(C)C)OC(=O)CCCCCCCCCCCCCCC` [DPPC, dipalmitoyl-phosphatidylcholine], the “glass-rubber transition temperatures (Tg)” value is 41 °C.

In the case of `CCCCCCCCCCCCCCCC(=O)OCC(COP(=O)(O)OCCN)OC(=O)CCCCCCCCCCCCCCC` (stereo not drawn) [DPPE, dipalmitoyl-phosphatidylethanolamine], the “glass-rubber transition temperatures (Tg)” value is 63 °C.

As for `CCCCCCCCCCCCCCCCCC(=O)OC[C@H](COP(=O)([O-])OCC[N+](C)(C)C)OC(=O)CCCCCCCCCCCCCCCCC` [DSPC, distearoyl-phosphatidylcholine], the “glass-rubber transition temperatures (Tg)” value is 55 °C.
